Assays:
mice = assay: Contextual fear conditioning (freezing behavior) for long term memory; format: in vivo, mouse
Experimental: Young-adult (10-12 weeks old) C57BL16 male mice (Taconic, N.Y.) were used for biochemistry and behavioral experiments. Upon arrival, mice were group-housed (5 mice) in standard laboratory cages and maintained on a 12:12 hours light-dark cycle. The experiments were always conducted during the light phase of the cycle. The day before the initiation of the experiment, mice were single housed in individual cages and maintained so till the end of the experiment. With the exception of training and testing times, the mice had ad lib access to food and water.
To assess contextual memory, a standardized contextual fear conditioning task (Bourtchuladze, et al., Cell 79(1):59-68 (1994)) was used. On the training day, the mouse was placed into the conditioning chamber (Med Associates, Inc., VA) for 2 minutes before the onset of the unconditioned stimulus (US), a 0.5 mA foot shock of 2 seconds duration. The US was repeated with a 1 minute inter-trial interval between shocks. After the last training trial, the mice were left in the conditioning chamber for another 30 sec and were then placed back in their home cage. Memory retention was tested one or four days after training. Results were identical for both time points. The mouse was placed into the same training chamber and conditioning was assessed by scoring freezing behavior, as defined by the complete lack of movement. Total testing time lasted 3 minutes. The proceeding of each experiment was filmed. After each experimental subject, the experimental apparatus was thoroughly cleaned with 75% ethanol, water, dried, and ventilated.
Mice were trained with one, two, five or ten trials of contextual conditioning. Four days later contextual memory was tested by scoring freezing behavior. […] Next, mice received weak training (two trials) to induce submaximal memory, or strong training (five trials) to induce maximum memory. Directly after training, the CREB enhancer Rolipram or vehicle was injected into the hippocampus. Contextual memory was tested by scoring freezing behavior four days after training.
For intrahippocampal Rolipram injection or Gpr12 siRNA treatment, mice were anesthetized with 20 mg/kg Avertin and implanted with a 33-gauge guide cannula bilateraly into the dorsal hippocampus (coordinates: A=−1.8 mm, L=+/−1.5 mm to a depth of 1.2 mm) (Franklin and Paxinos, 1997). Five to nine days after recovery from surgery, animals were injected with drug or vehicle control. […]
To assess contextual memory, a standardized contextual fear conditioning task (Bourtchuladze, et al, Cell 79(1):59-68 (1994)) was used. […] The mouse was placed into the same training chamber and conditioning was assessed by scoring freezing behavior, as defined by the complete lack of movement. […]

NS1 cells = assay: Neurite outgrowth assay in Neuroscreen 1 (NS1) cells; format: cell-based; settings: for number of branch points: FIG. 5B
Experimental: The effect of CREB enhancers on neurite outgrowth in NS1 cells was assayed. On-target siRNAs (Dharmacon Inc., Lafayette, USA) were used for in vitro testing (neurite outgrowth in NS 1 cells). Neuroscreen 1 (NS1) cells (Cellomics Inc.) were transfected according to the manufactures specification using Dharmafect 3.
Neuroscreen 1 (NS1) cells were cultured on collagen type I coated 75 cm^2 plastic flasks (Biocoat, Becton Dickinson) in a humidified incubator at 37° C. in 5% CO2. Cells were cultured in RPMI complete cell culture medium (Cambrex) supplemented with 10% heat-inactivated horse serum (Invitrogen), 5% heat-inactivated fetal bovine serum (Cellgro), and 2 mM L-glutamine (Cambrex). For expansion, the cells were trypsinized and split at 80% confluence. The cell culture media was changed every 2 to 3 days.
NS1 cells were harvested as if they were being passaged and then counted using a Coulter counter (Becton Dickinson Coulter Z1). Cells were seeded in 96-well collagen I coated plates at a density of 2000 cells per well in volume of 200 μl. RPMI media was supplemented with 200 ng/ml nerve growth factor (NGFβ, Sigma). NS 1 cells were incubated for 72 hours to allow differentiation to a neuronal phenotype. NGFβ was then diluted to 50 ng/ml and the cells were treated with siRNA or compound at the indicated doses, respectively.
Neurite outgrowth assays were performed using the Cellomics Arrayscan II Vti HCS scanner. Cells were stained using the HitKit™ HCS reagent kit (Cellomics) according to the manufactures specifications. The assay is based on immunoflourescence using an antibody that has been validated to specifically label both neurites and neuronal cell bodies. Briefly, cells were fixed in 3.7% formaldehyde and nuclei stained with Hoechst dye. Cells were then washed in neurite outgrowth buffer and neurites stained with Cellomics' proprietary primary antibody for neurite outgrowth high content screening. After 1 hour of incubation with the primary antibody, the cells were washed again and then incubated with fluorescently labeled secondary antibody solution for 1 hour. Antibody-stained 96-well plates were store at 4° C. in the dark until scanning. Plates were scanned using Cellomics ArrayScan II Vti HCS scanner. The neurite outgrowth assay uses two channels to carry out the scan. Channel 1 detects the Hoechst Dye and is used by the software to identify cells and for automated focusing. Channel 2 detects the FITC fluorescence of the secondary antibody and is used by the software to calculate all data generated in reference to neurites.

[1] = test system: mouse hippocampal neurons; assay: Neurite outgrowth assay in mouse hippocampal neurons; format: cell-based
Experimental: Mouse hippocampal neurons were cultured for three days and then treated with HT-2175 or Rolipram for 24 hours. […] MEAN+/−SEM of eight experimental replicate wells (each measuring neurite length of at least 100 neurons) is shown. […] Mice were treated with HT-2175 or vehicle and then trained in contextual conditioning.
Cryo-preserved NS 1 neurons were purchased from the University of Ottawa. Neurons were cultured on poly-D-lysine coated 96 well plates in serum free Neurobasal medium supplemented with 2% B27, 500 μM L-glutamine, and 1 mM pyruvate. Plating density was 20,000 neurons per well. For neurite outgrowth assays, neurons were cultured for 2-3 days and then treated for 24 hours with Rolipram, HT-2175, or HT-2157, respectively.

CREB pathway = assay: CRE-luciferase reporter assay of CREB activation in Neuro2A cells; format: cell-based; settings: p<0.001
Excerpt: CREB activity assays were constructed. Neuro2A cells were transfected with a CREB expressing or control vectors using standard molecular biology techniques. CRE-luciferase activity was monitored in the presence or absence of Forskolin ([…]). CREB over-expression led to an increase in the activation of the CRE-reporter construct (n=3 per group, * indicates p<0.05). CRE-luciferase reporter thus measures activation of the CREB pathway. In FIG. 1B, the effect of Rolipram on CREB-activation is shown. Neuro2A cells were treated with the PDE4 inhibitor Rolipram and CREB activation monitored via CRE-liciferase activation.
The effect of Rolipram on CREB-activation was assayed in the presence of 0.5 μM Forskolin. Neuro2A cells were treated with the PDE4 inhibitor Rolipram and CREB activation monitored via CRE-liciferase activation in the presence of 0.5 μM Forskolin.

[2] = siRNA treatment 48 hours, compared to vehicle alone

Compound: Gpr12 siRNA: siRNA against Gpr12; sense GAGGCACGCCCAUC AGAUAUU (SEQ ID NO: 1), anti-sense UAUCUGAUGGGCGUGCCUCUU (SEQ ID NO: 2) (sense GAGGCACGCCCAUCAGAUAUU; chemically modified siSTABLE siRNA, pattern not given here)
- contextual memory (freezing behavior) (mice; siRNA injected repeatedly into hippocampus, weak training (two trials), tested 24 hours later, FIG. 5C): facilitates contextual memory
- number of branch points (NS1 cells; siRNA treatment 48 hours): significantly enhanced neurite outgrowth
- neurite length (NS1 cells; [2]): significantly enhanced neurite outgrowth

Compound: O=C1C(=Nc2cccc(C(F)(F)F)c2)c2ccccc2N1c1ccccc1 [HT-2157]
- contextual memory (mice; contextual fear conditioning with two trials, FIG. 6D): dose dependently facilitates contextual memory
- number of branch points ([1]; mouse hippocampal neurons, FIG. 6C): dose-dependently facilitates neurite outgrowth
- total neurite length per cell (NS1 cells; FIG. 6A): facilitates neurite outgrowth
- number of branch points per dendrite (NS1 cells; FIG. 6B): facilitates neurite outgrowth

Compound: COc1ccc(C2CNC(=O)C2)cc1OC1CCCC1 (centres unmarked) [Rolipram]
- contextual memory (freezing behavior) (mice; strong training (five trials), injected into the hippocampus directly after training, tested four days after training): has no effect on maximal memory
- contextual memory (freezing behavior) (mice; weak training (two trials), injected into the hippocampus directly after training, tested four days after training): dose-dependently facilitates submaximal contextual memory
- branch points per neurite ([1]; neurons cultured three days, treated 24 hours, FIG. 4A): facilitate neurite outgrowth
- CREB activation monitored via CRE-luciferase activation (CREB pathway; FIG. 1B, n=8 per group): activates CREB-dependent transcription
- CREB activation monitored via CRE-luciferase activation (CREB pathway; in the presence of 0.5 μM Forskolin): activates CREB-dependent transcription
- neurite branch points (NS1 cells; increasing doses in the presence of 5 μM Forskolin): dose dependently increase neurite outgrowth
- neurite length (NS1 cells; increasing doses in the presence of 5 μM Forskolin, FIG. 3B): dose dependently increase neurite outgrowth

Compound: non-targeting control siRNA: 21mer non-targeting siRNA used as control; SEQ ID NO: 3 and 4 (chain 1 UAGCGACUAAACACAUCAAUU; chain 2 UUGAUGUGUUUAGUCGCUAUU; chemically modified siSTABLE siRNA, pattern not given here)
- number of branch points (NS1 cells; siRNA treatment 48 hours): had no effect on branch points
- neurite length (NS1 cells; [2]): had no effect on neurite outgrowth
- neurite length (NS1 cells; siRNA treatment 48 hours, compared to vehicle alone, listed as Non-targeting control siRNA): had no effect on neurite length
